Measured values as given in patent publication US20150086530A1, “DOSING REGIMENS FOR THE TREATMENT OF POMPE DISEASE” (Amicus Therapeutics, Inc., priority 2012, published 2015).
Values joined by “and” are separate entries in the source; they are usually repeats but may differ in a detail not shown here. Identical values can stand only once. Like-named read-outs stand apart in the source and are kept apart here.

Experiment: Plasma AT2220 (1-deoxynojirimycin hydrochloride) pharmacokinetics by LC-MS/MS in Pompe patients
Format: in vivo, human
Conditions: for Tmax / half-life / AUC(0-t) / AUC(0-inf) / Cmax: human, plasma, oral; for AUC(0-t): read-out: Plasma AT2220 AUC0-T; for AUC(0-inf): read-out: Plasma AT2220 AUC0-∞; for Cmax: read-out: Plasma AT2220 Cmax
Procedure: Blood samples for pharmacokinetic analysis will be collected before dosing 1-deoxynojirimycin hydrochloride and at 1 hour after administration of 1-deoxynojirimycin hydrochloride (i.e., immediately before initiation of the alglucosidase alfa infusion) and over the 24-hour period after initiation of the alglucosidase alfa infusion. Plasma and WBC GAA enzyme activity, plasma 1-deoxynojirimycin hydrochloride concentrations and plasma anti-rhGAA antibody titer will be determined from the collected blood samples at the times summarized in Table 2. A 12-lead ECG will be performed at the end of the alglucosidase alfa infusion, immediately after collection of the post-infusion blood sample.
Concentrations of 1-deoxynojirimycin hydrochloride in blood samples will be measured in plasma using a validated LC-MS/MS assay. GAA activity in plasma will be determined by a validated assay measuring enzyme activity using 4-MUG, with and without Con A. GAA protein levels will be measured by Western blotting using anti-human GAA antibody.
Non-compartmental pharmacokinetic parameters of AUC0-t, AUCinfinity, Cmax, tmax, kel and half-life will be calculated from plasma 1-deoxynojirimycin hydrochloride concentrations and plasma rhGAA enzyme levels. Pharmacokinetic parameters will be summarized by treatment using descriptive statistics. The AUC0-t, AUCinfinity ratios for GAA enzyme activity alone or after administration with 1-deoxynojirimycin hydrochloride will be calculated. Pharmacokinetic and pharmacodynamic data for those subjects receiving Myozyme® and Lumizyme® will be analyzed separately.

[1] = Cohort 3, 250 mg AT2220, Max, N=6
[2] = Cohort 3, 250 mg AT2220, Min, N=6
[3] = Cohort 3, 250 mg AT2220, individual subjects
[4] = 50 mg, 50 mg AT2220 (N = 4), Cohort 1, Geometric mean (CV %)
[5] = 100 mg, 100 mg AT2220 (N = 6), Cohort 2, Geometric mean (CV %)
[6] = 250 mg, 250 mg AT2220 (N = 6), Cohort 3, Geometric mean (CV %)
[7] = 250 mg, Cohort 3, 250 mg AT2220, Geometric Mean, N=6
[8] = 250 mg, Cohort 3, 250 mg AT2220, Mean, N=6

linearity of plasma pharmacokinetics (50 mg and 100 mg doses): approximately linear
linearity of plasma pharmacokinetics (50 mg and 100 mg doses, listed as 1-DNJ-HCl): approximately linear PK
increase in Cmax and AUC with dose (50 mg to 100 mg): ~2 fold
Plasma AT2220 AUC0-∞ Ratio (100 mg AT2220 (N = 6) relative to 50 mg): 1.9
AUC0-∞ Ratio, plasma AT2220 (100 mg vs 50 mg dose): 1.9
Plasma AT2220 AUC0-∞ Ratio (250 mg AT2220 (N = 6) relative to 50 mg): 3.2
Plasma AT2220 AUC0-T [1]: 29670 ng·h/mL
Plasma AT2220 AUC0-∞ [1]: 29916 ng·h/mL
Plasma AT2220 Cmax [1]: 4750 ng/mL
Plasma AT2220 T½ [1]: 4.6 h
Plasma AT2220 AUC0-T [2]: 18321 ng·h/mL
Plasma AT2220 AUC0-∞ [2]: 18711 ng·h/mL
Plasma AT2220 Cmax [2]: 2090 ng/mL
Plasma AT2220 Tmax [2]: 2.0 h
Plasma AT2220 T½ [2]: 3.0 h
Plasma AT2220 Tmax [3]: 2.0 h
Tmax (both sexes, 50 mg and 100 mg doses, read-out: rate of absorption (Tmax)): 2 to 3 h
increase in mean AUC, plasma AT2220 (from 50 mg to 100 mg): 1.9 fold
increase in mean Cmax, plasma AT2220 (from 50 mg to 100 mg): 1.8 fold
half-life (50 mg, 50 mg AT2220 (N = 4), Cohort 1, Arithmetic mean (SD), read-out: Plasma AT2220 t½ (converted)): 186 min
AUC(0-t) [4]: 6970 ng·h/mL
AUC(0-inf) [4]: 7010 ng·h/mL
Cmax [4]: 1040 ng/mL
Tmax (50 mg, 50 mg AT2220 (N = 4), Cohort 1, Median (range), read-out: Plasma AT2220 Tmax): 2 h
half-life (100 mg, 100 mg AT2220 (N = 6), Cohort 2, Arithmetic mean (SD), read-out: Plasma AT2220 t½ (converted)): 204 min
AUC(0-t) [5]: 13000 ng·h/mL
AUC(0-inf) [5]: 13100 ng·h/mL
Cmax [5]: 1860 ng/mL
Tmax (100 mg, 100 mg AT2220 (N = 6), Cohort 2, Median (range), read-out: Plasma AT2220 Tmax): 3 h
half-life (250 mg, 250 mg AT2220 (N = 6), Cohort 3, Arithmetic mean (SD), read-out: Plasma AT2220 t½ (converted)): 222 min
AUC(0-t) [6]: 21800 ng·h/mL
AUC(0-inf) [6]: 22100 ng·h/mL
Cmax [6]: 3150 ng/mL
Tmax (250 mg, 250 mg AT2220 (N = 6), Cohort 3, Median (range), read-out: Plasma AT2220 Tmax): 2 h
AUC(0-t) [7]: 21800 ng·h/mL
AUC(0-inf) [7]: 22100 ng·h/mL
Cmax [7]: 3150 ng/mL
Tmax (250 mg, Cohort 3, 250 mg AT2220, Geometric Mean, N=6, read-out: Plasma AT2220 Tmax): 2.3 h
half-life (250 mg, Cohort 3, 250 mg AT2220, Geometric Mean, N=6, read-out: Plasma AT2220 T½ (converted)): 222 min
AUC(0-t) [8]: 22100 ng·h/mL
AUC(0-inf) [8]: 22400 ng·h/mL
Cmax [8]: 3300 ng/mL
Tmax (250 mg, Cohort 3, 250 mg AT2220, Mean, N=6, read-out: Plasma AT2220 Tmax): 2.3 h
Structure (SMILES): OC[C@H]1NC[C@H](O)[C@@H](O)[C@@H]1O [AT2220, (2R,3R,4R,5S)-2-hydroxymethyl-piperidine-3,4,5-triol]
Plasma AT2220 AUC0-T [3]: 19344 ng·h/mL and 29670 ng·h/mL and 22230 ng·h/mL and 18321 ng·h/mL and 24278 ng·h/mL
Plasma AT2220 AUC0-∞ [3]: 19534 ng·h/mL and 29916 ng·h/mL and 22345 ng·h/mL and 18711 ng·h/mL and 24558 ng·h/mL
Plasma AT2220 Cmax [3]: 2090 ng/mL and 2740 ng/mL and 4750 ng/mL and 3620 ng/mL and 2350 ng/mL and 4220 ng/mL
